Experimental data as given in patent US9693556B2, “Herbicidal pyridazinone derivatives” (SYNGENTA LIMITED, priority 2011, dated 2017).

Columns and labels:
Assay type in all cases: in vivo
[1] = system: Alopecurus myosuroides (ALOMY); assay: Pre-emergence herbicidal glasshouse test on Alopecurus myosuroides; conditions: pre-emergence; 1000 g/h; evaluated after 13 days
Method in brief: (§1)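 Plants sprayed 1 day (pre-emergence) or 8 days (post-emergence) after sowing with compound at 1000 g/h in acetone/water 50:50 with 0.5% Tween 20; glasshouse 24/16° C, 14 h light, 65% humidity. Damage assessed after 13 days, scored 1–5 (5 = 80-100%, 1 = 0-19%).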

Setaria faberi (SETFA) [2] = assay: Pre-emergence herbicidal glasshouse test on Setaria faberi; conditions: pre-emergence; 1000 g/h; evaluated after 13 days
Method in brief: as §1

[3] = system: Echinochloa crus-galli (ECHCG); assay: Pre-emergence herbicidal glasshouse test on Echinochloa crus-galli; conditions: pre-emergence; 1000 g/h; evaluated after 13 days
Method in brief: as §1

Solanum nigrum (SOLNI) [4] = assay: Pre-emergence herbicidal glasshouse test on Solanum nigrum; conditions: pre-emergence; 1000 g/h; evaluated after 13 days
Method in brief: as §1

[5] = system: Amaranthus retoflexus (AMARE); assay: Pre-emergence herbicidal glasshouse test on Amaranthus retoflexus; conditions: pre-emergence; 1000 g/h; evaluated after 13 days
Method in brief: as §1

[6] = system: Ipomoea hederacea (IPOHE); assay: Pre-emergence herbicidal glasshouse test on Ipomoea hederacea; conditions: pre-emergence; 1000 g/h; evaluated after 13 days
Method in brief: as §1

[7] = system: Alopecurus myosuroides (ALOMY); assay: Post-emergence herbicidal glasshouse test on Alopecurus myosuroides; conditions: post-emergence; 1000 g/h; evaluated after 13 days
Method in brief: as §1

Setaria faberi (SETFA) [8] = assay: Post-emergence herbicidal glasshouse test on Setaria faberi; conditions: post-emergence; 1000 g/h; evaluated after 13 days
Method in brief: as §1

[9] = system: Echinochloa crus-galli (ECHCG); assay: Post-emergence herbicidal glasshouse test on Echinochloa crus-galli; conditions: post-emergence; 1000 g/h; evaluated after 13 days
Method in brief: as §1

Solanum nigrum (SOLNI) [10] = assay: Post-emergence herbicidal glasshouse test on Solanum nigrum; conditions: post-emergence; 1000 g/h; evaluated after 13 days
Method in brief: as §1

[11] = system: Amaranthus retoflexus (AMARE); assay: Post-emergence herbicidal glasshouse test on Amaranthus retoflexus; conditions: post-emergence; 1000 g/h; evaluated after 13 days
Method in brief: as §1

[12] = system: Ipomoea hederacea (IPOHE); assay: Post-emergence herbicidal glasshouse test on Ipomoea hederacea; conditions: post-emergence; 1000 g/h; evaluated after 13 days
Method in brief: as §1

| SMILES | PRE Application ALOMY herbicidal damage (five point scale) [1] | PRE Application SETFA herbicidal damage (five point scale) (Setaria faberi (SETFA) [2]) | PRE Application ECHCG herbicidal damage (five point scale) [3] | PRE Application SOLNI herbicidal damage (five point scale) (Solanum nigrum (SOLNI) [4]) | PRE Application AMARE herbicidal damage (five point scale) [5] | PRE Application IPOHE herbicidal damage (five point scale) [6] | POST Application ALOMY herbicidal damage (five point scale) [7] | POST Application SETFA herbicidal damage (five point scale) (Setaria faberi (SETFA) [8]) | POST Application ECHCG herbicidal damage (five point scale) [9] | POST Application SOLNI herbicidal damage (five point scale) (Solanum nigrum (SOLNI) [10]) | POST Application AMARE herbicidal damage (five point scale) [11] | POST Application IPOHE herbicidal damage (five point scale) [12] |
| --- | --- | --- | --- | --- | --- | --- | --- | --- | --- | --- | --- | --- |
| Cn1ncc(-c2ccc(S(C)(=O)=O)c(F)c2Cl)c(O)c1=O [Compound 1.021] | 2 (2=20-39% damage) | 1 (1=0-19% damage) | 5 (5=80-100% damage) | 1 (1=0-19% damage) | 5 (5=80-100% damage) | 2 (2=20-39% damage) | 1 (1=0-19% damage) | 1 (1=0-19% damage) | 5 (5=80-100% damage) | 5 (5=80-100% damage) | 5 (5=80-100% damage) | 5 (5=80-100% damage) |
| Cn1ncc(-c2ccccc2C#N)c(O)c1=O [Compound 1.022] | 1 (1=0-19% damage) | 1 (1=0-19% damage) | 1 (1=0-19% damage) | 1 (1=0-19% damage) | 1 (1=0-19% damage) | 1 (1=0-19% damage) | 1 (1=0-19% damage) | 1 (1=0-19% damage) | 1 (1=0-19% damage) | 3 (3=40-59% damage) | 2 (2=20-39% damage) | 1 (1=0-19% damage) |
| Cn1ncc(-n2ccc(-c3ccc(C(F)(F)F)cc3)cc2=O)c(O)c1=O [Compound 1.023] | 2 (2=20-39% damage) | 4 (4=60-79% damage) | 1 (1=0-19% damage) | 1 (1=0-19% damage) | 5 (5=80-100% damage) | 1 (1=0-19% damage) | 2 (2=20-39% damage) | 4 (4=60-79% damage) | 1 (1=0-19% damage) | 2 (2=20-39% damage) | 3 (3=40-59% damage) | 1 (1=0-19% damage) |
| Cn1ncc(-n2ccc(C(F)(F)F)c(-c3cncnc3)c2=O)c(O)c1=O [Compound 1.024] | 1 (1=0-19% damage) | 1 (1=0-19% damage) | 2 (2=20-39% damage) | 1 (1=0-19% damage) | 5 (5=80-100% damage) | 4 (4=60-79% damage) | 1 (1=0-19% damage) | 3 (3=40-59% damage) | 2 (2=20-39% damage) | 5 (5=80-100% damage) | 5 (5=80-100% damage) | 4 (4=60-79% damage) |
| Cn1ncc(-n2cc(N3CCOCC3)c(C(F)(F)F)cc2=O)c(O)c1=O [Compound 1.025] | 1 (1=0-19% damage) | 1 (1=0-19% damage) | 1 (1=0-19% damage) | 1 (1=0-19% damage) | 1 (1=0-19% damage) | 1 (1=0-19% damage) | 1 (1=0-19% damage) | 1 (1=0-19% damage) | 1 (1=0-19% damage) | 4 (4=60-79% damage) | 2 (2=20-39% damage) | 2 (2=20-39% damage) |
| Cn1ncc(-n2ccc(C(F)(F)F)c(N3CCOCC3)c2=O)c(O)c1=O [Compound 1.026] | 5 (5=80-100% damage) | 5 (5=80-100% damage) | 5 (5=80-100% damage) | 5 (5=80-100% damage) | 5 (5=80-100% damage) | 5 (5=80-100% damage) | 5 (5=80-100% damage) | 5 (5=80-100% damage) | 5 (5=80-100% damage) | 5 (5=80-100% damage) | 5 (5=80-100% damage) | 5 (5=80-100% damage) |
| CSc1ccn(-c2cnn(C)c(=O)c2O)c(=O)c1 [Compound 1.027] | 1 (1=0-19% damage) | 3 (3=40-59% damage) | 5 (5=80-100% damage) | 4 (4=60-79% damage) | 5 (5=80-100% damage) | 1 (1=0-19% damage) | 1 (1=0-19% damage) | 5 (5=80-100% damage) | 5 (5=80-100% damage) | 5 (5=80-100% damage) | 5 (5=80-100% damage) | 5 (5=80-100% damage) |
| Cn1ncc(-c2ccc(C(F)(F)F)cc2S(C)(=O)=O)c(O)c1=O [Compound 1.028, 4-hydroxy-2-methyl-5-[2-methylsulfonyl-4-(trifluoromethyl)phenyl]pyridazin-3-one] | 5 (5=80-100% damage) | 5 (5=80-100% damage) | 5 (5=80-100% damage) | 5 (5=80-100% damage) | 5 (5=80-100% damage) | 5 (5=80-100% damage) | 5 (5=80-100% damage) | 5 (5=80-100% damage) | 5 (5=80-100% damage) | 5 (5=80-100% damage) | 5 (5=80-100% damage) | 5 (5=80-100% damage) |
| Cn1ncc(-c2ccc(C(F)(F)F)cc2[S+](C)[O-])c(O)c1=O (stereo not drawn) [Compound 1.029] | 5 (5=80-100% damage) | 5 (5=80-100% damage) | 5 (5=80-100% damage) | 5 (5=80-100% damage) | 5 (5=80-100% damage) | 5 (5=80-100% damage) | 5 (5=80-100% damage) | 5 (5=80-100% damage) | 5 (5=80-100% damage) | 5 (5=80-100% damage) | 5 (5=80-100% damage) | 5 (5=80-100% damage) |
| Cn1ncc(-c2ccc(S(C)(=O)=O)c3c2COC3)c(O)c1=O [Compound 1.030] | 1 (1=0-19% damage) | 1 (1=0-19% damage) | 2 (2=20-39% damage) | 4 (4=60-79% damage) | 5 (5=80-100% damage) | 1 (1=0-19% damage) | 1 (1=0-19% damage) | 2 (2=20-39% damage) | 4 (4=60-79% damage) | 5 (5=80-100% damage) | 5 (5=80-100% damage) | 3 (3=40-59% damage) |
